Patent US8802720B2, “Acylamino-substituted fused cyclopentanecarboxylic acid derivatives and their use as pharmaceuticals” (SANOFI, priority 2008, dated 2014)

Target: human Edg-2 receptor (LPA1 receptor) (Homo sapiens, UniProt Q92633)
Assay: Edg-2 receptor inhibition by FLIPR calcium fluorescence measurement (LPA-mediated calcium liberation)
Format: cell-based
Settings: CHO cells stably overexpressing human Edg-2 receptor; LPA 18:1 100 nM; fluo-4 fluorescence; triplicate; read-out: Inhibitory concentrations IC50 for inhibition of the Edg-2 receptor
Method in brief: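 CHO cells stably overexpressing human Edg-2 were fluo-4 loaded and pre-incubated ~5 min with compound (≤0.3% DMSO) in HBSS/HEPES/probenecid, pH 7.5. Then LPA 18:1 at 100 nM final was added. Peak calcium fluorescence over ~3 min, baseline-corrected versus DMSO, gave % inhibition in triplicate and IC50.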

Chain of human Edg-2 receptor (LPA1 receptor) (Q92633 whole entry): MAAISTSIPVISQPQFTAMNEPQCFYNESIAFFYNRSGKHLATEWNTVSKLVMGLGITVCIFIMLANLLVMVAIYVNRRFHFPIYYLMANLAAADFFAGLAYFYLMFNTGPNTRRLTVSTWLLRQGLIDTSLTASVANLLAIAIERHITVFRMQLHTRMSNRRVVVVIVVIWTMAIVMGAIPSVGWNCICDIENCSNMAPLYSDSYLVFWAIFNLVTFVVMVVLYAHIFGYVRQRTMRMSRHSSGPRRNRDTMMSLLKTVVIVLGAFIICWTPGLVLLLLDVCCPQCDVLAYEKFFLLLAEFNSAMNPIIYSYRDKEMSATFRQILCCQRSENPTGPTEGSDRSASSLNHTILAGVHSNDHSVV

Structure (SMILES)	IC50
COc1ccc(C(=O)NC2(C(=O)O)Cc3cc(C)c(C)cc3C2)cc1OCCc1cccc(C)c1 [Example 158, 2-[4-Methoxy-3-(2-m-tolyl-ethoxy)-benzoylamino]-5,6-dimethyl-indane-2-carboxylic acid]	100 to 1000 nM
COc1ccc2c(c1)CC(NC(=O)c1ccc(OC)c(OCCc3cccc(C)c3)c1)(C(=O)O)C2 (centres unmarked) [Example 159, 5-Methoxy-2-[4-methoxy-3-(2-m-tolyl-ethoxy)-benzoylamino]-indane-2-carboxylic acid]	< 100 nM
COc1cc(C(=O)NC2(C(=O)O)Cc3ccccc3C2)ccc1OCCc1cccc(Cl)c1 [Example 161, 2-{4-[2-(3-Chloro-phenyl)-ethoxy]-3-methoxy-benzoylamino}-indane-2-carboxylic acid]	1000 to 30000 nM
COc1cc(C(=O)NC2(C(=O)O)Cc3ccccc3C2)ccc1OCCc1ccccc1Cl [Example 162, 2-{4-[2-(2-Chloro-phenyl)-ethoxy]-3-methoxy-benzoylamino}-indane-2-carboxylic acid]	1000 to 30000 nM
Cc1cccc(CCOc2cc(C(=O)NC3(C(=O)O)Cc4ccccc4C3)ccc2N)c1 [Example 163, 2-[4-Amino-3-(2-m-tolyl-ethoxy)-benzoylamino]-indane-2-carboxylic acid]	100 to 1000 nM
CNc1ccc(C(=O)NC2(C(=O)O)Cc3ccccc3C2)cc1OCCc1cccc(C)c1 [Example 164, 2-[4-Methylamino-3-(2-m-tolyl-ethoxy)-benzoylamino]-indane-2-carboxylic acid]	< 100 nM
Cc1cccc(CCOc2cc(C(=O)NC3(C(=O)O)Cc4ccccc4C3)ccc2NC(C)C)c1 [Example 166, 2-[4-Isopropylamino-3-(2-m-tolyl-ethoxy)-benzoylamino]-indane-2-carboxylic acid]	100 to 1000 nM
COc1ccc(C(=O)NC2(C(=O)O)Cc3ccccc3C2)cc1OCC(O)c1ccccc1F (centres unmarked) [Example 167, 2-{3-[2-(2-Fluoro-phenyl)-2-hydroxy-ethoxy]-4-methoxy-benzoylamino}-indane-2-carboxylic acid]	1000 to 30000 nM
Cc1cccc(CCOc2cc(C(=O)NC3(C(=O)O)Cc4ccccc4C3)ccc2C#N)c1 [Example 168, 2-[4-Cyano-3-(2-m-tolyl-ethoxy)-benzoylamino]-indane-2-carboxylic acid]	< 100 nM
COc1ccc(C(=O)NC2(C(=O)O)Cc3ccccc3C2)cc1CCCc1ccccc1 [Example 169, 2-[4-Methoxy-3-(3-phenyl-propyl)-benzoylamino]-indane-2-carboxylic acid]	100 to 1000 nM
Cc1cccc(CCNc2cc(C(=O)NC3(C(=O)O)Cc4ccccc4C3)ccc2C#N)c1 [Example 173, 2-[4-Cyano-3-(2-m-tolyl-ethylamino)-benzoylamino]-indane-2-carboxylic acid]	1000 to 30000 nM
N#Cc1ccc(C(=O)NC2(C(=O)O)Cc3ccccc3C2)cc1N1CCC(c2ccccc2)C1 (centres unmarked) [Example 174, 2-[4-Cyano-3-[3-phenyl-pyrrolidin-1-yl)-benzoylamino]-indane-2-carboxylic acid]	1000 to 30000 nM
N#Cc1ccc(C(=O)NC2(C(=O)O)Cc3ccccc3C2)cc1NCCc1ccccc1F [Example 175, 2-{4-Cyano-3-[2-(2-fluoro-phenyl)-ethylamino]-benzoylamino}-indane-2-carboxylic acid]	1000 to 30000 nM
Cc1ccc(C(=O)NC2(C(=O)O)Cc3ccccc3C2)cc1OCCc1cccc(Cl)c1 [Example 176, 2-{3-[2-(3-Chloro-phenyl)-ethoxy]-4-methyl-benzoylamino}-indane-2-carboxylic acid]	< 100 nM
Cc1ccc(C(=O)NC2(C(=O)O)Cc3ccccc3C2)cc1OCCc1ccccc1F [Example 177, 2-{3-[2-(2-Fluoro-phenyl)-ethoxy]-4-methyl-benzoylamino}-indane-2-carboxylic acid]	100 to 1000 nM
CCOc1ccc(C(=O)NC2(C(=O)O)Cc3ccccc3C2)cc1NCCc1cccc(C)c1 [Example 178, 2-[4-Ethoxy-3-(2-m-tolyl-ethylamino)-benzoylamino]-indane-2-carboxylic acid]	1000 to 30000 nM
Cc1cccc(CCNc2cc(C(=O)NC3(C(=O)O)Cc4ccccc4C3)ccc2O)c1 [Example 179, 2-[4-Hydroxy-3-(2-m-tolyl-ethylamino)-benzoylamino]-indane-2-carboxylic acid]	100 to 1000 nM
COc1ccc(C(=O)NC2(C(=O)O)Cc3ccccc3C2)cc1SCCc1cccc(Cl)c1 [Example 181, 2-{3-[2-(3-Chloro-phenyl)-ethylsulfanyl]-4-methoxy-benzoylamino}-indane-2-carboxylic acid]	< 100 nM
COc1ccc(C(=O)NC2(C(=O)O)Cc3ccccc3C2)cc1SCc1ccccc1 [Example 182, 2-(3-Benzylsulfanyl-4-methoxy-benzoylamino)-indane-2-carboxylic acid]	1000 to 30000 nM
Cc1cccc(CCOc2cc(C(=O)NC3(C(=O)O)Cc4ccccc4C3)ccc2C(F)(F)F)c1 [Example 185, 2-[3-(2-m-Tolyl-ethoxy)-4-trifluoromethyl-benzoylamino]-indane-2-carboxylic acid]	< 100 nM
O=C(NC1(C(=O)O)Cc2ccccc2C1)c1ccc(C(F)(F)F)c(OCCc2cccc(Cl)c2)c1 [Example 186, 2-{3-[2-(3-chloro-phenyl)-ethoxy]-4-trifluoromethyl-benzoylamino}-indane-2-carboxylic acid]	< 100 nM
O=C(NC1(C(=O)O)Cc2ccccc2C1)c1ccc(C(F)(F)F)c(OCCc2c(F)cccc2Cl)c1 [Example 187]	< 100 nM
O=C(NC1(C(=O)O)Cc2ccccc2C1)c1ccc(C(F)(F)F)c(OCCc2cc(F)ccc2F)c1 [Example 188]	< 100 nM
O=C(NC1(C(=O)O)Cc2ccccc2C1)c1ccc(C(F)(F)F)c(OCCc2cc(Cl)ccc2F)c1 [Example 189]	< 100 nM
Cc1nccnc1CCOc1cc(C(=O)NC2(C(=O)O)Cc3ccccc3C2)ccc1C(F)(F)F [Example 190]	1000 to 30000 nM
O=C(NC1(C(=O)O)Cc2ccccc2C1)c1ccc(C(F)(F)F)c(OCCc2cc(C(F)(F)F)ccc2F)c1 [Example 191]	< 100 nM
Cc1ccc(F)c(CCOc2cc(C(=O)NC3(C(=O)O)Cc4ccccc4C3)ccc2C(F)(F)F)c1 [Example 192]	< 100 nM
COc1ccc(C(=O)NC2(C(=O)O)Cc3ccccc3C2)cc1OCCc1cc(Cl)ccc1F [Example 193, 2-{3-[2-(5-Chloro-2-fluoro-phenyl)-ethoxy]-4-methoxy-benzoylamino}-indane-2-carboxylic acid]	< 100 nM
COc1ccc(C(=O)NC2(C(=O)O)Cc3ccccc3C2)cc1C#Cc1ccc(C(F)(F)F)cc1 [Example 194, 2-[4-Methoxy-3-(4-trifluoromethyl-phenylethynyl)-benzoylamino]-indane-2-carboxylic acid]	1000 to 30000 nM
COc1ccc(C(=O)NC2(C(=O)O)Cc3ccccc3C2)cc1C#Cc1ccc(C(C)(C)C)cc1 [Example 195, 2-[3-(4-tert-Butyl-phenylethynyl)-4-methoxy-benzoylamino]-indane-2-carboxylic acid]	100 to 1000 nM

Further lines, results first:

IC50	Structure (SMILES)
100 to 1000 nM	Cc1cccc(CCOc2cc(C(=O)NC3(C(=O)O)Cc4ccccc4C3)ccc2N(C)C)c1 [Example 165, 2-[4-Dimethylamino-3-(2-m-tolyl-ethoxy)-benzoylamino]-indane-2-carboxylic acid]
< 100 nM	COc1ccc(C(=O)NC2(C(=O)O)Cc3ccccc3C2)cc1NCCc1cccc(C)c1 [Example 171, 2-[4-Methoxy-3-(2-m-tolyl-ethylamino)-benzoylamino]-indane-2-carboxylic acid]
1000 to 30000 nM	COc1ccc(C(=O)NC2(C(=O)O)Cc3ccccc3C2)cc1N(C)CCc1cccc(C)c1 [Example 172, 2-{4-Methoxy-3-[methyl-(2-m-tolyl-ethyl)-amino]-benzoylamino}-indane-2-carboxylic acid]
< 100 nM	COc1ccc(C(=O)NC2(C(=O)O)Cc3ccccc3C2)cc1SCCc1cccc(C)c1 [Example 180, 2-[4-Methoxy-3-(2-m-tolyl-ethylsulfanyl)-benzoylamino]-indane-2-carboxylic acid]
1000 to 30000 nM	COc1ccc(C(=O)NC2(C(=O)O)Cc3ccccc3C2)cc1S(=O)(=O)CCc1cccc(C)c1 [Example 183, 2-[4-Methoxy-3-(2-m-tolyl-ethanesulfonyl)-benzoylamino]-indane-2-carboxylic acid]
1000 to 30000 nM	COc1ccc(C(=O)NC2(C(=O)O)Cc3ccccc3C2)cc1S(=O)(=O)CCc1cccc(Cl)c1 [Example 184, 2-{3-[2-(3-Chloro-phenyl)-ethanesulfonyl]-4-methoxy-benzoylamino}-indane-2-carboxylic acid]
< 100 nM	COc1ccc(C(=O)NC2(C(=O)O)Cc3ccccc3C2)cc1-c1cccc(C(C)C)c1 [Example 196, 2-[(3′-Isopropyl-6-methoxy-biphenyl-3-carbonyl)-amino]-indane-2-carboxylic acid]
1000 to 30000 nM	COc1ccc(C(=O)NC2(C(=O)O)Cc3ccccc3C2)cc1-c1ccc(CC(C)C)cc1 [Example 197]
< 100 nM	COc1ccc(C(=O)NC2(C(=O)O)Cc3ccccc3C2)cc1-c1cccc(Cl)c1 [Example 198]
< 100 nM	COc1ccc(C(=O)NC2(C(=O)O)Cc3ccccc3C2)cc1-c1cccc(CC#N)c1 [Example 199, 2-[(3′-cyanomethyl-6-methoxy-biphenyl-3-carbonyl)-amino]-indane-2-carboxylic acid]
< 100 nM	COc1ccc(C(=O)NC2(C(=O)O)Cc3ccccc3C2)cc1-c1cccc(C(F)(F)F)c1 [Example 200]
1000 to 30000 nM	COc1ccc(C(=O)NC2(C(=O)O)Cc3ccccc3C2)cc1-c1ccc(C(C)(C)C)cc1 [Example 201]
< 100 nM	CCc1cccc(-c2cc(C(=O)NC3(C(=O)O)Cc4ccccc4C3)ccc2OC)c1 [Example 202]
< 100 nM	COc1ccc(C(=O)NC2(C(=O)O)Cc3ccccc3C2)cc1-c1cccc(NS(=O)(=O)N(C)C)c1 [Example 203]
